From ChEMBL document CHEMBL5042493, “Enhancing monoamine oxidase B inhibitory activity via chiral fluorination: Structure-activity relationship, biological evaluation, and molecular docking study” (Eur J Med Chem, 2022)
Activity calls are given as the source filed them. The calls are words filed in the database; no cut-off is given here.

Tests used:
[1] = molecular target: T1, Cytochrome P450 1A2 (Homo sapiens, UniProt P05177); test: Inhibition of human CYP1A2 preincubated for 10 min followed by addition of NADPH and measured after 10 min by LC-MS/MS analysis; type: ADME
T1 sequence (P05177 whole entry): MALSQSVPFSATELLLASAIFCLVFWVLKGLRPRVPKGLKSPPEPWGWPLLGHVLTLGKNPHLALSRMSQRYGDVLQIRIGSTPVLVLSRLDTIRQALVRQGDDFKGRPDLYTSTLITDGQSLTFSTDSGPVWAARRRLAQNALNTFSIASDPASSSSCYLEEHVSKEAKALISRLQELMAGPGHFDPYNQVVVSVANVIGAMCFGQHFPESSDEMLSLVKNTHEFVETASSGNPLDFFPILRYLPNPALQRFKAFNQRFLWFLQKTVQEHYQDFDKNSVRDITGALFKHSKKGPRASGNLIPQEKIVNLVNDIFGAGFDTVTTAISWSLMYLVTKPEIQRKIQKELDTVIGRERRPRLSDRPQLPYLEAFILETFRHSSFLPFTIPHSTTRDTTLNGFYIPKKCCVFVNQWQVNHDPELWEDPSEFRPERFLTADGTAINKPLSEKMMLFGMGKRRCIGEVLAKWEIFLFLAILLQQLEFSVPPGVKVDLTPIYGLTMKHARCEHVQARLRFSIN

[2] = molecular target: Cytochrome P450 2C19 (Homo sapiens, UniProt P33261); test: Inhibition of human CYP2C19 preincubated for 10 min followed by addition of NADPH and measured after 45 min by LC-MS/MS analysis; type: ADME
[3] = Plasma protein binding in monkey assessed as unbound fraction at 1 uM measured after 5 hrs by LC-MS/MS analysis; type: ADME, cell-free, Macaca mulatta; conditions: rhesus monkey
[4] = Metabolic stability in monkey liver microsome assessed as half life at 1 uM measured after 60 min in presence of NADPH by LC-MS/MS analysis; type: ADME, Macaca mulatta; conditions: rhesus monkey, liver microsomes
[5] = Apparent permeability in MDCK-MDR1 cells from basal to apical side at 10 uM; type: ADME, cell-based, Canis lupus familiaris; conditions: dog
[6] = AUC (0-t) in Cynomolgus monkey rat at 5 mg/kg, po measured upto 24 hrs; type: ADME, organism-based, Macaca fascicularis; design: route oral, dose 5 mg/kg, time <=24; conditions: in vivo
[7] = molecular target: 5-hydroxytryptamine receptor 2B (Homo sapiens) (UniProt P41595); test: Binding affinity to 5-HT2B receptor (unknown origin) expressed in CHO-K1 cells; type: cell-based; conditions: concentration not given here
[8] = Cmax in Sprague dawley rat at 1 mg/kg, iv measured upto 24 hrs; type: ADME, organism-based; design: route intravenous, dose 1 mg/kg, time <=24; conditions: in vivo
[9] = Cmax in Sprague dawley rat at 5 mg/kg, po measured upto 24 hrs; type: ADME, organism-based; design: route oral, dose 5 mg/kg, time <=24; conditions: in vivo
[10] = molecular target: Cytochrome P450 2C9 (Homo sapiens, UniProt P11712); test: Inhibition of human CYP2C9 preincubated for 10 min followed by addition of NADPH and measured after 10 min by LC-MS/MS analysis; type: ADME
[11] = AUC (0-t) in Sprague dawley rat at 1 mg/kg, iv measured upto 24 hrs; type: ADME, organism-based; design: route intravenous, dose 1 mg/kg, time <=24; conditions: in vivo
[12] = molecular target: Cytochrome P450 2D6 (Homo sapiens, UniProt P10635); test: Inhibition of human CYP2D6 preincubated for 10 min followed by addition of NADPH and measured after 10 min by LC-MS/MS analysis; type: ADME
[13] = Clearance in Cynomolgus monkey rat at 1 mg/kg, iv measured upto 24 hrs; type: ADME, organism-based, Macaca fascicularis; conditions: in vivo
[14] = AUC (0-t) in Cynomolgus monkey at 1 mg/kg, iv measured upto 24 hrs; type: ADME, organism-based, Macaca fascicularis; design: route intravenous, dose 1 mg/kg, time <=24; conditions: in vivo
[15] = test system: Mus musculus; test: Neuroprotective activity against MPTP-induced C57BL/6 mouse model of Parkinson's disease assessed as increase in DA level in striatum at 1.25 to 5 mg/kg, ip pretreated with MPTP for 4 hrs followed by incubation with compound for five times at 24 hrs interval and measured after 30 mins by HPLC electrochemical detection method in the presence of L-dopa and benserazide; type: functional, organism-based; conditions: dose 1.25-5 mg/kg, time 24.5 hrs
[16] = Cmax in Cynomolgus monkey at 1 mg/kg, iv measured upto 24 hrs; type: ADME, organism-based, Macaca fascicularis; design: route intravenous, dose 1 mg/kg, time <=24; conditions: in vivo
[17] = Cmax in Cynomolgus monkey rat at 5 mg/kg, po measured upto 24 hrs; type: ADME, organism-based, Macaca fascicularis; design: route oral, dose 5 mg/kg, time <=24; conditions: in vivo
[18] = Plasma protein binding in mouse assessed as unbound fraction at 1 uM measured after 5 hrs by LC-MS/MS analysis; type: ADME, cell-free
[19] = Oral bioavailability in Cynomolgus monkey rat at 5 mg/kg measured upto 24 hrs; type: ADME, organism-based, Macaca fascicularis; conditions: in vivo
[20] = Half life in Cynomolgus monkey at 1 mg/kg, iv measured upto 24 hrs; type: ADME, organism-based, Macaca fascicularis; conditions: in vivo
[21] = Apparent permeability in MDCK-MDR1 cells from apical to basal side at 10 uM; type: ADME, cell-based, Canis lupus familiaris; conditions: dog
[22] = species on record: Homo sapiens; test: Selectivity index, ratio of IC50 for recombinant human MAO-A expressed in Sf9 cells to IC50 for recombinant human MAO-B expressed in Sf9 cells
[23] = Oral bioavailability in Sprague dawley rat at 5 mg/kg measured upto 24 hrs; type: ADME, organism-based; conditions: in vivo
[24] = Volume of distribution at steady state in Sprague dawley rat at 1 mg/kg, iv measured upto 24 hrs; type: ADME, organism-based; conditions: in vivo, read-out: Vdss
[25] = Plasma protein binding in dog assessed as unbound fraction at 1 uM measured after 5 hrs by LC-MS/MS analysis; type: ADME, cell-free, Canis lupus familiaris
[26] = Volume of distribution at steady state in Cynomolgus monkey at 1 mg/kg, iv measured upto 24 hrs; type: ADME, organism-based, Macaca fascicularis; conditions: in vivo, read-out: Vdss
[27] = test system: Rattus norvegicus; test: Neuroprotective activity against galantamine-induced Sprague-Dawley rat model of Parkinson's disease assessed as reduction in galantamine-induced tremulous jaw movements at 0.156 to 1.25 mg/kg, ip preincubated with galantamine for 15 mins followed by compound addition and measured after 15 mins; type: functional, organism-based; conditions: dose 0.156-1.25 mg/kg
[28] = Plasma protein binding in human assessed as unbound fraction at 1 uM measured after 5 hrs by LC-MS/MS analysis; type: ADME, cell-free
[29] = test system: Mus musculus; test: Neuroprotective activity against MPTP-induced C57BL/6 mouse model of Parkinson's disease assessed as increase in DA level in striatum at 0.625 to 2.5 mg/kg, ip pretreated for 15 mins followed by MPTP challenge and measured after 8 days post MPTP challenge by HPLC electrochemical detection method; type: functional, organism-based; conditions: dose 0.625-2.5 mg/kg, time 8.0 day
[30] = Metabolic stability in mouse liver microsome assessed as half life at 1 uM measured after 60 min in presence of NADPH by LC-MS/MS analysis; type: ADME; conditions: liver microsomes
[31] = test system: Mus musculus; test: In vivo inhibition of MAO-B in ICR mouse brain at 0.4 to 2 mg/kg, ip administered once a week for 21 days by fluorescence based monoamine oxidase assay; type: functional, organism-based; conditions: dose 0.4-2 mg/kg, time 21.0 day
[32] = molecular target: Cytochrome P450 3A5 (Homo sapiens, UniProt P20815); test: Inhibition of human CYP3A5 preincubated for 10 min followed by addition of NADPH and measured after 5 min by LC-MS/MS analysis; type: ADME
[33] = test system: Salmonella typhimurium; test: Genotoxicity in Salmonella typhimurium by Ames test; type: toxicity, organism-based; conditions: salmonella enterica subsp. enterica serovar typhimurium
[34] = Metabolic stability in human liver microsome assessed as half life at 1 uM measured after 60 min in presence of NADPH by LC-MS/MS analysis; type: ADME; conditions: liver microsomes

Chain of Cytochrome P450 2D6 (P10635 whole entry): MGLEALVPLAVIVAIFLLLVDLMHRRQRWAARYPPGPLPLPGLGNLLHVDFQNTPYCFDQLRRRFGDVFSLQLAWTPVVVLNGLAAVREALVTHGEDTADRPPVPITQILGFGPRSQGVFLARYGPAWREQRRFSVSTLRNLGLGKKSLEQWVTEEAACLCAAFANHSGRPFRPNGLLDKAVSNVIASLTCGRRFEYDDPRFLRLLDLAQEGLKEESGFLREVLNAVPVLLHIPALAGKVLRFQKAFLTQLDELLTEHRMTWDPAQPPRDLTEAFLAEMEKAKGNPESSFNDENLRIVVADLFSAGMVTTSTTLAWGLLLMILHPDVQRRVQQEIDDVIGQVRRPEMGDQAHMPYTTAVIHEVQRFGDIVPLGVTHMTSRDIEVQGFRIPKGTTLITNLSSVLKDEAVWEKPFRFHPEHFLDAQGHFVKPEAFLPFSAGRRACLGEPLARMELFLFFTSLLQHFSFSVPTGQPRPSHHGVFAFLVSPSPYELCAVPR
Chain of Cytochrome P450 2C9 (P11712 whole entry): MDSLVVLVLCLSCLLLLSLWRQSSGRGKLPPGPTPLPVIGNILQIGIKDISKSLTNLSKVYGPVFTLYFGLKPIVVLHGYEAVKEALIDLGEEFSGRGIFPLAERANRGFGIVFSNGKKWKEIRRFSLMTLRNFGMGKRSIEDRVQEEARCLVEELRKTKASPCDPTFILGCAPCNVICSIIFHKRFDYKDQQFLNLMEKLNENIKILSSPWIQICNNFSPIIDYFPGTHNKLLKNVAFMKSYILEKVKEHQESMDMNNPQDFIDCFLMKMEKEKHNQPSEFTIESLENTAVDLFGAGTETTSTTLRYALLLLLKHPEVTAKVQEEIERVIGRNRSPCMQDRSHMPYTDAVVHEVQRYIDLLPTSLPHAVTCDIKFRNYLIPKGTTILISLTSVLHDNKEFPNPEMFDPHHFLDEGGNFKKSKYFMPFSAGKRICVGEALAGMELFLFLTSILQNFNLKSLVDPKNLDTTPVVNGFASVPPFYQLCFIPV
Chain of Cytochrome P450 3A5 (P20815 whole entry): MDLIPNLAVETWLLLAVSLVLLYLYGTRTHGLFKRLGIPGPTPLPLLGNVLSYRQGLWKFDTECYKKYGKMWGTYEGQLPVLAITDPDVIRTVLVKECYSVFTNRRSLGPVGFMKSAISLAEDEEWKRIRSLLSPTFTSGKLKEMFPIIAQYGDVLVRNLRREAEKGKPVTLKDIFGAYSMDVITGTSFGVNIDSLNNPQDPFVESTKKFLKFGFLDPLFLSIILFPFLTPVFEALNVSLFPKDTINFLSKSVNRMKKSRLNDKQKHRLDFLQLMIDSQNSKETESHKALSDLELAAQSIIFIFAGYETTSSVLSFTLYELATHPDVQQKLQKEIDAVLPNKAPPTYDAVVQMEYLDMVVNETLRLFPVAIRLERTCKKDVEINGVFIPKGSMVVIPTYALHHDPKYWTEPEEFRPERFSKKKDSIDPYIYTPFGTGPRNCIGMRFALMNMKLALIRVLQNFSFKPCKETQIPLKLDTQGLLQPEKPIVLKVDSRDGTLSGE
Chain of Cytochrome P450 2C19 (P33261 whole entry): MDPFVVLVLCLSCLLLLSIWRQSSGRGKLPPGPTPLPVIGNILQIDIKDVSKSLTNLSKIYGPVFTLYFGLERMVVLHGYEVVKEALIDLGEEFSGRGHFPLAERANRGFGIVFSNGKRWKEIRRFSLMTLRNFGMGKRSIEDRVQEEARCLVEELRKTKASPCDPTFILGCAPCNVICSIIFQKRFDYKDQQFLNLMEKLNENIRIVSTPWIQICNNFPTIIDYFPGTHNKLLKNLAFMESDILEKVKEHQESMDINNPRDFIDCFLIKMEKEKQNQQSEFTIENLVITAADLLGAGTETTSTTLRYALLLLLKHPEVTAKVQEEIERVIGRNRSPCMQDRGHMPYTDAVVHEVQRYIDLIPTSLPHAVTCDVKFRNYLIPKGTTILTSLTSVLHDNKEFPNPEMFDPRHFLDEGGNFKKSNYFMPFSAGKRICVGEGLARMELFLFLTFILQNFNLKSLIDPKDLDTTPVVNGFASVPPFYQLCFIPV
Chain of 5-hydroxytryptamine receptor 2B (Homo sapiens) (P41595 whole entry): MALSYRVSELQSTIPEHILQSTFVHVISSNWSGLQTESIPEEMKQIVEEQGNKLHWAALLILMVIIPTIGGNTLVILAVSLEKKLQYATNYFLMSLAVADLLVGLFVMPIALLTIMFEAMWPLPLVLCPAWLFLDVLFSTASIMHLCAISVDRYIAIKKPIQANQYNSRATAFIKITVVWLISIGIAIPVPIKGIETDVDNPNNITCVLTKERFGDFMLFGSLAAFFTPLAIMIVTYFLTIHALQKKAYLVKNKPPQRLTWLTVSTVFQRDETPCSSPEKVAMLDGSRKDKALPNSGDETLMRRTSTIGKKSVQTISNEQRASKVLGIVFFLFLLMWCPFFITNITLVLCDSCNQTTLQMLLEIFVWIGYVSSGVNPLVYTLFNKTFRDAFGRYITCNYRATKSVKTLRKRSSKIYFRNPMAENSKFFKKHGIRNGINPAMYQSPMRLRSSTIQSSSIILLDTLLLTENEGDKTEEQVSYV

NC(=O)[C@@H]1C[C@H](F)CN1Cc1ccc(OCc2cccc(F)c2)cc1
IC50 [1]: > 29 µM | IC50 [2]: > 29 µM | fraction unbound at 5 h, 1 µM [3]: 0.0407 | half-life at 1 µM [4]: 0.616 h | Papp B→A at 10 µM [5]: 22.8 ×10⁻⁶ cm/s | AUC(0-t) at 24 h [6]: 11300 ng·h/mL | inhibition [7]: 57% | Cmax [8]: 690 ng/mL | Cmax [9]: 1000 ng/mL | IC50 [10]: > 29 µM | AUC(0-t) at 24 h [11]: 505 ng·h/mL | IC50 [12]: > 29 µM | clearance [13]: 7.54 mL/min/kg | AUC(0-t) at 24 h [14]: 2120 ng·h/mL | Activity [15]: Active | Cmax [16]: 924 ng/mL | Cmax [17]: 2280 ng/mL | fraction unbound at 5 h, 1 µM [18]: 0.0516 | bioavailability [19]: 107% | half-life [20]: 1.77 h | Papp A→B at 10 µM [21]: 28.9 ×10⁻⁶ cm/s | Ratio IC50 [22]: 2440 | bioavailability [23]: 55.2% | Vd [24]: 1.37 L/kg | fraction unbound at 5 h, 1 µM [25]: 0.0429 | Vd [26]: 1.06 L/kg | Activity [27]: Active | fraction unbound at 5 h, 1 µM [28]: 0.0363 | Activity [29]: Active | half-life at 1 µM [30]: 9.37 min | inhibition [31]: Active | IC50 [32]: > 29 µM | Activity [33]: Non-Toxic | half-life at 1 µM [34]: 2.23 h
